# Values joined by “and” are separate entries in the source; they are usually repeats but may differ in a detail not shown here. Equal entries are not always repeated.
# System: penicillin hypersensitivity (patients)
# Experiment: Clinical evaluation by 26 investigators: scratch/intradermal skin tests with PPL and Penicillin G (Tables IV-VII, IX-XI)
# Type: in vivo, human
# Conditions: for TOTAL (+) No. / TOTAL (+) Percent of total positive: skin reactive penicillin allergy patients
# Method: Twenty-six clinical investigators contributed a total of 1160 cases to the evaluation. Patients were tested according to a protocol as follows:
# 1. All patients being subjected to allergy investigation were to be tested for penicillin hypersensitivity. Two preparations were to be used. These are:
# 2. Penicillin G (Benzyl Penicillin) in a concentration of 10,000 units per cc.
# For maximum safety, it was recommended that the tests first be done by the scratch technique. Intradermal tests were then to be done on those showing negative scratch tests. In cases where the penicillin sensitivity was suspected to be of a violent character, more dilute reagents were recommended at the discretion of the individual investigator.
# A uniform technique was recommended for the performance of the intradermal tests. Only a minimal amount of testing reagent was to be injected so as to make a barely discernible intradermal bleb. The amount necessary for this injection is about 0.01 to 0.03 cc. It was recognized that the intrepretation of the test results is an important matter. The reactions were to be recorded in terms of (1) the time required for the appearance of a reaction, (2) the size of erythema and (3) the size of whealing. These were to be recorded as actual measurements. Some objective measurement of dermographism was also to be recorded.
# It was also contemplated that all patients who were to be treated with penicillin be tested as recommended above, even though they had previously received penicillin with impunity.
# A comprehensive clinical history was takan on each patient with particular regard to previous penicillin therapy, and reaction.
# In order to properly analyze the data on such a large number of patients, a data processing system was utilized.
# Table IV summarizes the skin test results on all patients, without regard to other specific factors. […] It will also be noted that a significant number of patients reacted only to PPL, and another group only to Pen G. Therefore, to detect the maximum number of reactors, both test reagents would be required. A technical problem was classification of the ambiguous or borderline reactors, particularly those showing only erythema. Attempts to correlate the appearance of the erythematous flare without wheal formation with a history of penicillin hypersensitivity were unsuccessful. In some instances, however, erythema without wheal did appear to be associated with hypersensitivity to the antibiotic. The time of development of erythema without wheal varied widely from a few minutes to more than 7 days which also made its importance questionable. as a diagnostic sign. For these reasons erythema alone responses were counted with the negatives. In some instances, however, data will be presented in which erythema without wheal are counted as positive responses (figures appearing in parentheses).
# [1] = Group I (675 patients): penicillin Rx, no hypersensitivity, erythema only counted as negative
# [2] = Group I (675 patients): penicillin Rx, no hypersensitivity, parentheses: erythema only (ambiguous) counted as positive
# [3] = Group II (352 patients): penicillin Rx & hypersensitive, erythema only counted as negative
# [4] = Group II (352 patients): penicillin Rx & hypersensitive, parentheses: erythema only (ambiguous) counted as positive
# [5] = Group III (70 patients): no penicillin Rx in past, erythema only counted as negative
# [6] = Group III (70 patients): no penicillin Rx in past, parentheses: erythema only (ambiguous) counted as positive
# [7] = Group IV (56 patients): no data, erythema only counted as negative
# [8] = Group IV (56 patients): no data, parentheses: erythema only (ambiguous) counted as positive
# [9] = TOTALS (1153 patients), erythema only counted as negative
# [10] = TOTALS (1153 patients), parentheses: erythema only (ambiguous) counted as positive
# [11] = TOTALS, all patients (1153 tested), erythema only counted as negative
# [12] = TOTALS, all patients (1153 tested), parentheses: erythema only (ambiguous) counted as positive
# [13] = all patients (1153 tested), erythema only counted as negative
# [14] = all patients (1153 tested), parentheses: erythema only (ambiguous) counted as positive
# [15] = history of therapy: Multi Courses (177 tested)
# [16] = history of therapy: One Course (249 tested)
# [17] = history of therapy: One Dose (152 tested)
# [18] = history of therapy: TOTALS (578 tested)
# [19] = penicillin reaction between 30 minutes and 24 hours post therapy (87 patients), erythema only counted as negative
# [20] = penicillin reaction between 30 minutes and 24 hours post therapy (87 patients), parentheses: erythema only (ambiguous) counted as positive
# [21] = penicillin reaction more than 24 hours post therapy (144 patients), erythema only counted as negative
# [22] = penicillin reaction more than 24 hours post therapy (144 patients), parentheses: erythema only (ambiguous) counted as positive
# [23] = penicillin reaction within 30 minutes post therapy (56 patients), erythema only counted as negative
# [24] = penicillin reaction within 30 minutes post therapy (56 patients), parentheses: erythema only (ambiguous) counted as positive
# [25] = reason for testing: "Penicillin" (240 tested)
# [26] = reason for testing: Other Substances (463 tested)
# [27] = reaction between 30 minutes and 24 hours post therapy, erythema only counted as negative
# [28] = reaction between 30 minutes and 24 hours post therapy, parentheses: erythema only (ambiguous) counted as positive
# [29] = reaction more than 24 hours post therapy, parentheses: erythema only (ambiguous) counted as positive
# [30] = reaction within 30 minutes post therapy, parentheses: erythema only (ambiguous) counted as positive
# [31] = type of hypersensitivity reaction: Skin (309 tested)
# [32] = type of hypersensitivity reaction: Visceral (43 tested)
substance,measurement,setting,value
penicilloyl-poly-L-lysine [PPL],Skin Test (+) No.,[1],36
same,Skin Test (+) Percent,[1],5.3%
same,Skin Test (-) No.,[1],639
same,Skin Test (-) Percent,[1],94.7%
same,Skin Test (+) No.,[2],78
same,Skin Test (+) Percent,[2],11.6%
same,Skin Test (-) No.,[2],597
same,Skin Test (-) Percent,[2],88.4%
same,Skin Test (+) No.,[3],73
same,Skin Test (+) Percent,[3],20.7%
same,Skin Test (-) No.,[3],279
same,Skin Test (-) Percent,[3],79.3%
same,Skin Test (+) No.,[4],97
same,Skin Test (+) Percent,[4],27.6%
same,Skin Test (-) No.,[4],255
same,Skin Test (-) Percent,[4],72.4%
same,Skin Test (+) No.,[5],1
same,Skin Test (+) Percent,[5],1.4%
same,Skin Test (-) No.,[5],69
same,Skin Test (-) Percent,[5],98.6%
same,Skin Test (+) No.,[6],6
same,Skin Test (+) Percent,[6],8.6%
same,Skin Test (-) No.,[6],64
same,Skin Test (-) Percent,[6],91.4%
same,Skin Test (+) No.,[7],3
same,Skin Test (+) Percent,[7],5.4%
same,Skin Test (-) No.,[7],53
same,Skin Test (-) Percent,[7],94.6%
same,Skin Test (+) No.,[8],4
same,Skin Test (+) Percent,[8],7.1%
same,Skin Test (-) No.,[8],52
same,Skin Test (-) Percent,[8],92.9%
same,SKIN TEST RESPONSE No.,No reactions (675 tested),36
same,SKIN TEST RESPONSE Percent,No reactions (675 tested),5.3%
same,Skin Test (-) No.,[9],1040
same,Skin Test (-) Percent,[9],90.2%
same,Skin Test (-) No.,[10],968
same,Skin Test (-) Percent,[10],84.0%
same,Skin Test (+) No.,[11],113
same,Skin Test (+) Percent,[11],9.8%
same,Skin Test (+) No.,[12],185
same,Skin Test (+) Percent,[12],16.1% and 16.0%
same,PPL (+) PG (+) No.,[13],34
same,PPL (+) PG (+) Percent,[13],3.0%
same,PPL (+) PG (-) No.,[13],79
same,PPL (+) PG (-) Percent,[13],6.9%
same,PPL (-) PG (+) No.,[13],38
same,PPL (-) PG (+) Percent,[13],3.3%
same,PPL (-) PG (-) No.,[13],1002
same,PPL (-) PG (-) Percent,[13],86.9%
same,PPL (+) PG (+) No.,[14],80
same,PPL (+) PG (+) Percent,[14],6.9%
same,PPL (+) PG (-) No.,[14],105
same,PPL (+) PG (-) Percent,[14],9.1%
same,PPL (-) PG (+) No.,[14],49
same,PPL (-) PG (+) Percent,[14],4.3%
same,PPL (-) PG (-) No.,[14],919
same,PPL (-) PG (-) Percent,[14],79.7%
same,"positive skin tests, patients positive/patients in group",delayed (after 24 hours) group,24/144
same,"positive skin tests, percent of group","delayed (after 24 hours) group, 144 patients",16.7%
same,Skin Reactions PPL- / PEN G- No.,[15],14
same,Skin Reactions PPL- / PEN G- Percent,[15],7.9%
same,Skin Reactions PPL- / PEN G- No.,[16],14
same,Skin Reactions PPL- / PEN G- Percent,[16],5.6%
same,Skin Reactions PPL- / PEN G- No.,[17],24
same,Skin Reactions PPL- / PEN G- Percent,[17],15.8%
same,Skin Reactions PPL- / PEN G- No.,[18],52
same,Skin Reactions PPL- / PEN G- Percent,[18],9.0%
same,"positive skin tests, patients positive/patients in group",immediate reacting group (within 30 minutes),26/56
same,"positive skin tests, percent of group","immediate reacting group (within 30 minutes), 56 patients",46% and 46.5%
same,percent of skin-test positive patients that would be missed if only this reagent were used as skin test antigen,immediate reactor group,16%
same,PL (+) PG (+) No.,[19],12
same,PL (+) PG (+) Percent,[19],13.8%
same,PPL (+) PG (-) No.,[19],9
same,PPL (+) PG (-) Percent,[19],10.4%
same,PPL (-) PG (+) No.,[19],5
same,PPL (-) PG (+) Percent,[19],5.7%
same,PPL (-) PG (-) No.,[19],61
same,PPL (-) PG (-) Percent,[19],70.0%
same,PL (+) PG (+) No.,[20],14
same,PL (+) PG (+) Percent,[20],16.1%
same,PPL (+) PG (-) No.,[20],10
same,PPL (+) PG (-) Percent,[20],11.5%
same,PPL (-) PG (+) No.,[20],7
same,PPL (-) PG (+) Percent,[20],8.0%
same,PPL (-) PG (-) No.,[20],56
same,PPL (-) PG (-) Percent,[20],64.4%
same,PL (+) PG (+) No.,[21],8
same,PL (+) PG (+) Percent,[21],5.6%
same,PPL (+) PG (-) No.,[21],16
same,PPL (+) PG (-) Percent,[21],11.1%
same,PPL (-) PG (+) No.,[21],9
same,PPL (-) PG (+) Percent,[21],6.2%
same,PPL (-) PG (-) No.,[21],111
same,PPL (-) PG (-) Percent,[21],77.1%
same,PL (+) PG (+) No.,[22],11
same,PL (+) PG (+) Percent,[22],7.6%
same,PPL (+) PG (-) No.,[22],22
same,PPL (+) PG (-) Percent,[22],15.3%
same,PPL (-) PG (+) No.,[22],11
same,PPL (-) PG (+) Percent,[22],7.6%
same,PPL (-) PG (-) No.,[22],100
same,PPL (-) PG (-) Percent,[22],69.4%
same,PL (+) PG (+) No.,[23],12
same,PL (+) PG (+) Percent,[23],21.4%
same,PPL (+) PG (-) No.,[23],14
same,PPL (+) PG (-) Percent,[23],25.0%
same,PPL (-) PG (+) No.,[23],5
same,PPL (-) PG (+) Percent,[23],8.9%
same,PPL (-) PG (-) No.,[23],25
same,PPL (-) PG (-) Percent,[23],44.6%
same,PL (+) PG (+) No.,[24],15
same,PL (+) PG (+) Percent,[24],26.8%
same,PPL (+) PG (-) No.,[24],16
same,PPL (+) PG (-) Percent,[24],28.6%
same,PPL (-) PG (+) No.,[24],5
same,PPL (-) PG (+) Percent,[24],8.9%
same,PPL (-) PG (-) No.,[24],20
same,PPL (-) PG (-) Percent,[24],35.7%
same,Skin Test (+) No.,[25],31
same,Skin Test (+) Percent,[25],12.9%
same,Skin Test (+) No.,[26],21
same,Skin Test (+) Percent,[26],4.5%
same,TOTAL (+) No.,[27],21
same,TOTAL (+) Percent of total positive,[27],80.8%
same,TOTAL (+) No.,[28],24
same,TOTAL (+) Percent of total positive,[28],77.4%
same,TOTAL (+) No.,"reaction more than 24 hours post therapy, erythema only counted as negative",24
same,TOTAL (+) No.,[29],33
same,TOTAL (+) Percent of total positive,[29],75.0%
same,TOTAL (+) No.,"reaction within 30 minutes post therapy, erythema only counted as negative",26
same,TOTAL (+) No.,[30],31
same,TOTAL (+) Percent of total positive,[30],86.1%
same,SKIN TEST RESPONSE No.,[31],66
same,SKIN TEST RESPONSE Percent,[31],21.4%
same,SKIN TEST RESPONSE No.,[32],10
same,SKIN TEST RESPONSE Percent,[32],23.3%

# — patent US3979508A, “Compositions and methods therewith for penicillin hypersensitivity detection” (Kremers-Urban Company, priority 1975, dated 1976)
